In patent US12070031B2 (priority 2020, dated 2024):
Where a name gives a salt, the structure may show the parent alone.

Tests used:
[1] = test system: P. syringae; assay: MIC by broth microdilution (CLSI) with resazurin; assay type: cell-based, Pseudomonas syringae
Experimental: (§1) The antimicrobial efficacy of the ZnNP-Strep and controls were evaluated by the antimicrobial assay methods as previously described. Briefly, Microplate Alamar Blue Assay (MABA) was performed to initially screen the antimicrobial efficacy of the NPs. Then, the minimum inhibitory concentration (MIC) was determined by broth microdilution method in accordance with the guidelines of the Clinical and Laboratory Standards Institute (CLSI). As per the CLSI requirements, from a starter culture of 0.5 McFarland Standard, 5×10^5 CFU/well was added to all the wells. […] The accuracy of the MIC determination was improved by adding 10 μL of resazurin dye (0.0125%, w/v) per 100 μL well volume and observing color changes (from blue to pink for live organisms).

[2] = test system: X. alfalfae; assay: MIC by broth microdilution (CLSI) with resazurin; assay type: cell-based, Xanthomonas alfalfae subsp. citrumelonis
Experimental: as §1

[3] = test system: E. coli; assay: MIC by broth microdilution (CLSI) with resazurin; assay type: cell-based, Escherichia coli
Experimental: as §1

[4] = test system: tomato plants (Solanum lycopersicum); assay: Phytotoxicity after foliar application; assay type: in vivo; design: key to Phytotoxicity, Tomato sp.: No toxicity (−); symptoms appear on less than 5% of the leaves was rated as minimal (+); 5 to 50% was rated as moderate (++); above 50% was rated as severe (+++); conditions: for Phytotoxicity, Tomato sp.: foliar, 72 h
Experimental: The phytotoxicity of the ZnNP adjuvant with and without streptomycin was tested on tomato plants (Solanum lycopersicum, model fruit plant, 11 cm tall) obtained from Home Depot. The ZnNP treatments were applied directly on plant leaves (foliar application) using a hand-held sprayer until excess liquid starts dripping. Foliar application was conducted at 8:00 a.m. in a greenhouse setting to simulate field conditions. Treated plants were then placed in a growth chamber, Panasonic environmental test chamber (model MLR-352H) with summer settings (34° C., 60-80% RH). Phytotoxicity was evaluated 72 h post application. Digital photographs of treated leaves were taken for the visual assessment (phenotypic) plant tissue damage. Parallel treatments were done with copper sulfate at 1000 μg/mL (positive control) and DI water (untreated control, UTC) to compare phytotoxicity level with the ZnNP treatments. The appearance of brown necrotic spots, chlorosis, and necrosis on the leaves is indicative of plant tissue damage (i.e. phytotoxicity). Phytotoxicity was rated as follows: No toxicity (−), symptoms appear on less than 5% of the leaves was rated as minimal (+), 5 to 50% was rated as moderate (++), and above 50% was rated as severe (+++). Phytotoxicity studies were carried out in triplicate for each treatment and concentration.

[5] = test system: X. alfalfae; assay: MBC by CFU plating after dialysis; assay type: cell-based, Xanthomonas alfalfae subsp. citrumelonis; conditions: Xanthomonas alfalfae; dialysis time N/A; relative to streptomycin concentration
Experimental: The antimicrobial efficacy of ZnNP-Strep was also studied after dialysis of the particles. The particles were dialyzed to remove any unbound streptomycin and simulate the effect of rainfall on the particles in field conditions. […] The particles were dialyzed for 0, 1, 3, and 12 h and the remaining streptomycin loaded on the particles for each timepoint was quantified by LCMS by diluting the particles with 1% HCl and analyzing them with the previously described method. After streptomycin quantification the particles were diluted to 500 ppm streptomycin and their antimicrobial efficacy was assessed via MIC assay described above. The minimum bactericidal concentration (MBC) of the particles was also assessed by performing colony forming unit (CFU) plating. After 24 h incubation of bacteria with the samples, 100 μL of the treated bacteria was then transferred to nutrient agar plates. They were then spread dry using sterile spreaders (Fisher Scientific) and incubated for 48 h to check for bacterial growth at each concentration tested.

[6] = test system: X. alfalfae; assay: MIC of ZnNP-Strep after dialysis (simulated rainfall); assay type: cell-based, Xanthomonas alfalfae subsp. citrumelonis; conditions: Xanthomonas alfalfae; dialysis time N/A; relative to streptomycin concentration
Experimental: as §1
The antimicrobial efficacy of ZnNP-Strep was also studied after dialysis of the particles. […] The particles were dialyzed for 0, 1, 3, and 12 h and the remaining streptomycin loaded on the particles for each timepoint was quantified by LCMS by diluting the particles with 1% HCl and analyzing them with the previously described method. After streptomycin quantification the particles were diluted to 500 ppm streptomycin and their antimicrobial efficacy was assessed via MIC assay described above. The minimum bactericidal concentration (MBC) of the particles was also assessed by performing colony forming unit (CFU) plating. […]

[7] = 24 h incubation, concentration active
[8] = highest concentration tested, 1000 μg/mL

## CC(=O)N[C@@H](CS)C(=O)O [NAC, N-acetylcysteine]
[1]; [7]
  P. syringae (MIC): No inhibition
[1]; [8]
  growth inhibitory effect: no growth inhibitory effect
[2]; [7]
  X. alfalfae (MIC): No inhibition
[2]; [8]
  growth inhibitory effect: no growth inhibitory effect
[3]; [7]
  E. coli (MIC): No inhibition
[3]; [8]
  growth inhibitory effect: no growth inhibitory effect

## O=S(=O)([O-])[O-].[Cu+2] [Copper sulfate, copper sulfate]
[4]; 1000 μg/mL Cu
  Phytotoxicity, Tomato sp.: +++ (above 50% was rated as severe (+++))
[4]; 72 hrs after foliar application
  signs of phytotoxicity (visual): many brown spots

## [H]/N=C(/N)N[C@H]1[C@H](O)[C@@H](O)[C@H](O[C@@H]2O[C@@H](C)[C@](O)(C=O)[C@H]2O[C@@H]2O[C@@H](CO)[C@H](O)[C@@H](O)[C@@H]2NC)[C@@H](N/C(N)=N\[H])[C@@H]1O [Streptomycin sulfate, streptomycin sulfate]
[1]; Pseudomonas syringae, 24 h incubation, concentration active
  MIC: 2 mg/L
[2]; Xanthomonas alfalfae, 24 h incubation, concentration active
  MIC: 2 mg/L
[4]; 1000 μg/mL Strep
  Phytotoxicity, Tomato sp.: −
[5]
  MBC: 16 mg/L
[3]; Escherichia coli, 24 h incubation, concentration active
  MIC: 6 mg/L
[6]
  MIC: 1 mg/L
